Tests used:
B1G6 monoclonal antibody = assay: Effect of selected peptides on the neutralization of HIV-1 NDK by B1G6 monoclonal antibody on PBLs; assay type: cell-based; conditions: peptide 100 or 50 μg/ml; B1G6 5 μg/ml
Experimental: The peptides at a concentration of 100 μg/ml or 50 μg/ml (40 μl or 20 μl of the stock solution and 5 mg/ml) are preincubated with 5 μg/ml of B1G6 (10 μl of a stock solution at 1 mg/ml) in a total volume of 110 μl for 2 hours, in tubes on a water bath at 37° C., with gentle stirring. Next, HIV-1 NDK is added (100 μl of a 2×10^−4 dilution of a stock solution and the tubes are incubated for 1 hour at 37° C. on a water bath. The tubes are then separated into two and each 100 μl is added to 10^6 PBLs on a 24-well plate. The cells are cultured for 3 days at 37° C. under an atmosphere with 5% CO2. On day 3, the cells are washed, placed in culture and propagated for at least 20-25 days in a 25 cm^3 round-bottomed flask. The production of virus is monitored every 3 or 4 days by the assay of reverse transcriptase (RT).

R7V = target: T1, R7V (Homo sapiens, UniProt P61769); assay: Immune response of rabbits immunized with peptide-KLH, serum ELISA on peptide; assay type: in vivo, rabbit
T1 construct: The peptide R7V (RTPKIQV) was extended by 2 amino acids in order to allow the coupling
Experimental: The peptide antigen 7AA is coupled to KLH (Keyhole Limpet Hemocyanin) and injected into rabbits in the presence of complete Freund's adjuvant.
The animals are immunized in the presence of complete Freund's adjuvant at D0, D14, D28, D42 and trial bleedings are carried out before immunization on days 35, 49, 56 and 70.
The peptides used are: RV7-KLH, S7K-KLH and F7E-KLH
The peptide R7V (RTPKIQV) was extended by 2 amino acids in order to allow the coupling. The structure used as immunogen is […].
The antibodies of the rabbits immunized 618 were measured by ELISA, where the peptide coupled to various carrier proteins was used at the bottom of the well (either coupled to KLH, to BSA (Bovine Serum Albumin) or MAP (Multiple Antigenic Peptide)).
The diagrams represent the results obtained at 2 dilutions d100 and d1000, that is to say a 1/100 and 1/1000 dilution of the sera, or at different times. […]
→(Ag)final=1 μg/ml • distribute 100 μl/well, that is to 100 ng/well • incubate 2 h at 37° C. or overnight at 4° C. […] (in a humid atmosphere). • 8) Washes (identical to point 2) • 9) Visualization with OPD • dissolve 10 mg OPD in 25 ml of phosphocitrate buffer (0.1 M, pH 5.5) • add at the last moment 10 μl H2O2 • distribute 100 μl/well and incubate 30 min in the dark at room temperature (may be read at 405 nm) • stop the reaction with 50 μl H2SO4 12.5 k. • 10) Reading at 492 nm.

| Substance | canceling of the neutralizing effect of B1G6 on the production of HIV-1 NDK by the PBLs (B1G6 monoclonal antibody) | immune response generated (R7V) |
| --- | --- | --- |
| IQRTPNIVKW [compound 190] | lost the canceling effect |  |
| TLSRTPKIQV [compound 185] | lost the canceling effect |  |
| IQRTPQIVKW [compound 189] | lost the canceling effect |  |
| RTPKIQV [R7V] | can cancel the neutralizing effect | good immune response |
| FHPSDIE [F7E] | can cancel the neutralizing effect |  |
